{"source": "patent US4205171A", "about": "“Aminomethanobenzazocines and nitromethanobenzazocines” (Sterling Drug Inc., priority 1978, dated 1980)", "key": {"[1]": {"assay": "Irritation at the injection site", "format": "in vivo", "conditions": "rabbits", "description": "A still further important difference is the comparative irritation at the injection site of pentazocine and the compound of Example 1B. The threshold irritation concentration of the latter in rabbits was 2% and of pentazocine, 0.5%."}, "[2]": {"test_system": "acetylcholine-induced writhing", "assay": "Anti-acetylcholine writhing test (analgesia)", "format": "in vivo, mice", "conditions": "for ED50: Mus musculus, 20 min, mice; for Oral:Parenteral Potency Ratio: peroral ED50 / subcutaneous ED50, anti-acetylcholine test", "experimental": "In this test the ability of test compounds to prevent acetylcholine-induced writhing in mice is determined. The following is an adaptation of the method of Collier and co-workers (Brit. J. Pharmacol. Chemother., 32, 295(1968)) by Anne K. Pierson. Anti-acetylcholine Writhing Test\nThis response has also been called writhing. Animals are pretreated with test compounds (20 minutes for both subcutaneous and oral routes) and observed for two minutes immediately following the administration of acetylcholine. Mice not responding during the two-minute observation period are scored protected while those responding one or more times are scored not protected. Test compounds are screened at doses of 75 and 25 milligrams per kilogram subcutaneously or 150 and 50 mlligrams per kilogram orally. […] ED50 values for active compounds are estimated by probit analysis of quantal scores for 4 or more dosage levels using 15 animals per dose. Vehicle-pretreated control animals are tested concurrently with each run of 15 experimental animals."}, "[3]": {"test_system": "phenazocine (agonist effect in rat tail-flick)", "assay": "Tail-flick antagonist test against phenazocine", "conditions": "for ED50: Rattus norvegicus, sc, 10 min, read-out: Tail-flick Antagonist AD50"}, "[4]": {"assay": "Intravenous administration in the dog (unconsciousness, heart rate, blood pressure)", "format": "in vivo"}, "[5]": {"test_system": "tail-flick response to thermal stimulus", "assay": "Tail-flick agonist test", "format": "in vivo", "conditions": "rats, subcutaneous; for Tail-flick Agonist ED50: 30 minutes after injection", "experimental": "Rats normally respond to a thermal stimulus applied to the tail by flicking their tails out from under the heat source. The intensity of the stimulus utilized is one which produces control response-times (CRT) of 2-4 seconds. Experimental response-times (ERT) are determined 30 minutes after subcutaneous injections. […] Therefore, the maximum possible increase (MPI) in response-time for any given animal is 20 minus the CRT. The average % effect, or % of the maximum possible increase (%MPI) obtained after any given test compound treatment is calculated by the formula [formula] […] Exptl."}, "[6]": {"assay": "Tests for analgesia, comparison with cyclazocine and pentazocine", "format": "in vivo", "conditions": "both subcutaneously and orally", "description": "The compound of Example 1B having in the free base form the structural formula [drawing 14] is the preferred species of this invention and the biological properties thereof have been carefully compared with those of pentazocine and cyclazocine."}, "[7]": {"conditions": "po, peroral, read-out: Peroral ED50, anti-acetylcholine test"}, "[8]": {"conditions": "sc, subcutaneous, 20 minutes pretreatment, read-out: ED50, anti-acetylcholine writhing test"}}, "note": "Structures can show the parent of a compound that is named as a salt. Where two headings read alike, the source gives them in different places.", "data": [{"smiles": "C[C@H]1[C@H]2Cc3ccc(N)cc3[C@]1(C)CCN2CC1CC1", "note": "(relative stereo) [Example 1B, 8-amino-3-(cyclopropylmethyl)-1,2,3,4,5,6-hexahydro-cis-6,11-dimethyl-2,6-methano-3-benzazocine dihydrochloride]", "values": [{"measurement": "Threshold irritation concentration", "setting": "[1]", "value": 2, "unit": "%"}, {"measurement": "ED50", "setting": "[2]; [7]", "value": 3.2, "unit": "mg/kg"}, {"measurement": "ED50", "setting": "[2]; [8]", "value": 0.8, "unit": "mg/kg"}, {"measurement": "Oral:Parenteral Potency Ratio", "setting": "[2]", "value": 4}, {"measurement": "ED50", "setting": "[3]", "value": 2.7, "unit": "mg/kg"}, {"measurement": "Heart rate and blood pressure", "setting": "[4]", "value": "without compromising heart rate or blood pressure"}, {"measurement": "Salivation and tremors", "setting": "[4]", "value": "Salivation and tremors were observed"}, {"measurement": "Unconsciousness", "setting": "[4]", "value": "produced unconsciousness equivalent to a light plane of anesthesia"}]}, {"smiles": "C[C@H]1[C@H]2Cc3ccc(NCC4CC4)cc3[C@]1(C)CCN2CC1CC1", "note": "(relative stereo) [Example 2E, 3-(cyclopropylmethyl)-8-(cyclopropylmethylamino)-1,2,3,4,5,6-hexahydro-cis-6,11-dimethyl-2,6-methano-3-benzazocine hydrochloride]", "values": [{"measurement": "ED50", "setting": "[2]; [8]", "value": 0.7, "unit": "mg/kg"}, {"measurement": "ED50", "setting": "[3]", "value": 8, "unit": "mg/kg"}]}, {"smiles": "CNc1ccc2c(c1)[C@]1(C)CCN(CC3CC3)[C@H](C2)[C@@H]1C", "note": "(relative stereo) [Example 3B, 3-(cyclopropylmethyl)-1,2,3,4,5,6-hexahydro-cis-6,11-dimethyl-8-(methylamino)-2,6-methano-3-benzazocine dihydrochloride ethanolate hydrate]", "values": [{"measurement": "Tail-flick Agonist % MPI", "setting": "[5]; at 120 mg./kg.", "value": 35, "unit": "%"}, {"measurement": "ED50", "setting": "[2]; [8]", "value": 0.44, "unit": "mg/kg"}, {"measurement": "ED50", "setting": "[3]", "value": 1.3, "unit": "mg/kg"}]}, {"smiles": "C[C@H]1[C@H]2Cc3ccc(N(C)C)cc3[C@]1(C)CCN2CC1CC1", "note": "(relative stereo) [Example 4F, 3-cyclopropylmethyl-8-dimethylamino-cis-6,11-dimethyl-1,2,3,4,5,6-hexahydro-2,6-methano-3-benzazocine dihydrochloride]", "values": [{"measurement": "Tail-flick Agonist % MPI", "setting": "[5]; at 60 mg./kg.", "value": 43, "unit": "%"}, {"measurement": "ED50", "setting": "[2]; [8]", "value": 0.79, "unit": "mg/kg"}, {"measurement": "Tail-flick Antagonist % Antagonism", "setting": "[3]; rats, subcutaneous, against phenazocine, at 10 mg./kg.", "value": 30, "unit": "%"}, {"measurement": "Tail-flick Antagonist % Antagonism", "setting": "[3]; rats, subcutaneous, against phenazocine, at 80 mg./kg.", "value": 32, "unit": "%"}]}, {"smiles": "CC(C)CN1CC[C@@]2(C)c3cc(N)ccc3C[C@@H]1[C@@H]2C", "note": "(relative stereo) [Example 5C, 8-amino-1,2,3,4,5,6-hexahydro-3-isobutyl-cis-6,11-dimethyl-2,6-methano-3-benzazocine dihydrochloride]", "values": [{"measurement": "ED50", "setting": "[2]; [8]", "value": 1.5, "unit": "mg/kg"}, {"measurement": "ED50", "setting": "[3]", "value": 9.4, "unit": "mg/kg"}]}, {"smiles": "CCCN1CC[C@@]2(C)c3cc(N)ccc3C[C@@H]1[C@@H]2C", "note": "(relative stereo) [Example 6C, 8-amino-cis-6,11-dimethyl-1,2,3,4,5,6-hexahydro-3-propyl-2,6-methano-3-benzazocine dihydrochloride sesquihydrate]", "values": [{"measurement": "Tail-flick Agonist ED50", "setting": "[5]", "value": "Inactive at 60"}, {"measurement": "ED50", "setting": "[2]; [8]", "value": 5.6, "unit": "mg/kg"}, {"measurement": "ED50", "setting": "[3]", "value": 2, "unit": "mg/kg"}]}, {"smiles": "C[C@H]1[C@H]2Cc3ccc(NCc4ccccc4)cc3[C@]1(C)CCN2CC1CC1", "note": "(relative stereo) [Example 7, 3-(cyclopropylmethyl)-1,2,3,4,5,6-hexahydro-cis-6,11-dimethyl-8-benzylamino-2,6-methano-3-benzazocine dihydrochloride]", "values": [{"measurement": "ED50", "setting": "[2]; [8]", "value": 1.6, "unit": "mg/kg"}, {"measurement": "ED50", "setting": "[3]", "value": 1, "unit": "mg/kg"}]}, {"smiles": "C=CCN1CC[C@@]2(C)c3cc(N)ccc3C[C@@H]1[C@@H]2C", "note": "(relative stereo) [Example 8C, 8-amino-1,2,3,4,5,6-hexahydro-cis-6,11-dimethyl-3-(2-propenyl)-2,6-methano-3-benzazocine dihydrochloride]", "values": [{"measurement": "ED50", "setting": "[2]; [8]", "value": 2.5, "unit": "mg/kg"}, {"measurement": "ED50", "setting": "[3]", "value": 1.5, "unit": "mg/kg"}]}, {"smiles": "CCNc1ccc2c(c1)[C@]1(C)CCN(CC3CC3)[C@H](C2)[C@@H]1C", "note": "(relative stereo) [Example 9B, 3-(cyclopropylmethyl)-8-(ethylamino)-1,2,3,4,5,6-hexahydro-cis-6,11-dimethyl-2,6-methano-3-benzazocine]", "values": [{"measurement": "Tail-flick Agonist % MPI", "setting": "[5]; at 60 mg./kg.", "value": 25, "unit": "%"}, {"measurement": "Tail-flick Agonist % MPI", "setting": "[5]; at 120 mg./kg., different sample", "value": 21, "unit": "%"}, {"measurement": "ED50", "setting": "[2]; [8]", "value": 1.3, "unit": "mg/kg"}, {"measurement": "ED50", "setting": "[3]", "value": 10, "unit": "mg/kg"}, {"measurement": "Tail-flick Antagonist % Antagonism", "setting": "[3]; rats, subcutaneous, against phenazocine, at 80 mg./kg., different sample", "value": 19, "unit": "%"}]}, {"smiles": "CCCNc1ccc2c(c1)[C@]1(C)CCN(CC3CC3)[C@H](C2)[C@@H]1C", "note": "(relative stereo) [Example 10B, 3-(cyclopropylmethyl)-1,2,3,4,5,6-hexahydro-cis-6,11-dimethyl-8-(propylamino)-2,6-methano-3-benzazocine]", "values": [{"measurement": "ED50", "setting": "[2]; [8]", "value": 1.2, "unit": "mg/kg"}, {"measurement": "Tail-flick Antagonist % Antagonism", "setting": "[3]; rats, subcutaneous, against phenazocine, at 5 mg./kg., different sample", "value": 32, "unit": "%"}, {"measurement": "Tail-flick Antagonist % Antagonism", "setting": "[3]; rats, subcutaneous, against phenazocine, at 40 mg./kg.", "value": 31, "unit": "%"}]}, {"smiles": "CCCCNc1ccc2c(c1)[C@]1(C)CCN(CC3CC3)[C@H](C2)[C@@H]1C", "note": "(relative stereo) [Example 11B, 8-(butylamino)-3-(cyclopropylmethyl)-1,2,3,4,5,6-hexahydro-cis-6,11-dimethyl-2,6-methano-3-benzazocine]", "values": [{"measurement": "ED50", "setting": "[2]; [8]", "value": 1, "unit": "mg/kg"}]}, {"smiles": "CC[C@H]1[C@H]2Cc3ccc(N)cc3[C@]1(CC)CCN2CC1CC1", "note": "(relative stereo) [Example 12H, 8-amino-3-(cyclopropylmethyl)-cis-6,11-diethyl-1,2,3,4,5,6-hexahydro-2,6-methano-3-benzazocine dihydrochloride]", "values": [{"measurement": "ED50", "setting": "[2]; [8]", "value": 1.3, "unit": "mg/kg"}, {"measurement": "ED50", "setting": "[3]", "value": 3.8, "unit": "mg/kg"}]}, {"smiles": "C[C@H]1[C@H]2Cc3ccc(N)cc3[C@]1(C)CCN2C", "note": "(relative stereo) [Formula G, α-2'-amino-2,5,9-trimethyl-6,7-benzomorphan, reference compound]", "values": [{"measurement": "Tail-flick Agonist ED50", "setting": "[5]", "value": "Inactive at 120"}, {"measurement": "ED50", "setting": "[2]; [8]", "value": 7.5, "unit": "mg/kg"}, {"measurement": "Narcotic antagonist activity", "setting": "[3]; rat, in vivo", "value": "not a narcotic antagonist"}, {"measurement": "Tail-flick Antagonist AD50", "setting": "[3]; rats, subcutaneous, against phenazocine", "value": "Inactive at 80"}]}, {"smiles": "C[C@H]1[C@H]2Cc3ccc(O)cc3[C@]1(C)CCN2CC1CC1", "note": "(relative stereo) [cyclazocine, reference compound]", "values": [{"measurement": "Tail-flick Agonist ED50", "setting": "[5]", "value": "Inactive at 120"}, {"measurement": "ED50", "setting": "[2]; [7]", "value": 5.3, "unit": "mg/kg"}, {"measurement": "ED50", "setting": "[2]; [8]", "value": 0.15, "unit": "mg/kg"}, {"measurement": "Oral:Parenteral Potency Ratio", "setting": "[2]", "value": 35}, {"measurement": "ED50", "setting": "[3]", "value": 0.028, "unit": "mg/kg"}, {"measurement": "Heart rate and blood pressure", "setting": "[4]", "value": "increases in heart rate and blood pressure"}, {"measurement": "Unconsciousness", "setting": "[4]", "value": "produced unconsciousness"}]}, {"smiles": "CC(C)=CCN1CCC2(C)c3cc(O)ccc3CC1C2C", "note": "(stereo not drawn) [pentazocine, reference compound]", "values": [{"measurement": "Tail-flick Agonist ED50", "setting": "[5]", "value": "Inactive at 120"}, {"measurement": "Potency relative to the compound of Example 1B in the tests for analgesia", "setting": "[6]", "value": "significantly less potent"}, {"measurement": "Threshold irritation concentration", "setting": "[1]", "value": 0.5, "unit": "%"}, {"measurement": "ED50", "setting": "[2]; [7]", "value": 51, "unit": "mg/kg"}, {"measurement": "ED50", "setting": "[2]; [8]", "value": 2.2, "unit": "mg/kg"}, {"measurement": "Oral:Parenteral Potency Ratio", "setting": "[2]", "value": 23}, {"measurement": "ED50", "setting": "[3]", "value": 6.3, "unit": "mg/kg"}, {"measurement": "Unconsciousness", "setting": "[4]", "value": "without unconsciousness"}, {"measurement": "Convulsions", "setting": "[4]; single dose tested", "value": "induced convulsions"}]}]}
